Data taken from US6472424B1, “Stabilized antimicrobial compositions containing halopropynyl compounds and benzylidene camphors” (Troy Technology Corporation, Inc., priority 2000, dated 2002).

Test: Light-induced yellowing of IPBC-containing white test paint film after UV exposure
Type: physicochemical
Settings: for effectiveness of the UV absorber in inhibiting degradation/yellowing of the IPBC: same test, assessment in words compared to the blank; for Δb value (difference in yellowing between blank paint and candidate paint sample): styrenated acrylic white house paint, IPBC 0.3%, formulation 20% IPBC / 40% UV absorber / 40% N-methyl pyrrolidone, paint film exposed to 340 nm UV radiation for four hours
Experimental: In the following examples a styrenated acrylic white house paint was used as the test medium to measure the effect of sunlight on the degradation of IPBC in various IPBC-containing compositions. The test paint composition was prepared by adding ingredients 2 through 6 slowly to a mixer containing water (ingredient 1). After mixing the composition for about 10 minutes, ingredients 7 through 11 were added, and mixing was continued until a smooth dispersion was obtained. Then the final two ingredients were added. Additional water can be added to obtain a desired viscosity.
In the following examples, a number of liquid formulations were prepared, each containing (1) 20% by weight IPBC (Troysan ® Polyphase® P-100), (2) 40% by weight of one of the UV absorbers indicated in each example which follows, and (3) 40% by weight of N-methyl pyrrolidone as a liquid vehicle. Each formulation was then incorporated into the white test paint by mixing in an amount sufficient to provide a test paint having IPBC present at a level of 0.3%. The paint formulations containing IPBC and UV absorbers were then applied on a Leneta chart with help of a 3 mil Bird type applicator. The paint film was allowed to dry for 10-15 minutes and then sprayed with a clear non-yellowing varnish (-3 mils), namely, Kamar Varnish 1312. The varnish was obtained from Krylon Products Group, The Specialty Division, Division of Sherwin-Williams Company, Ohio. The object of the varnish was to trap any of the chromophores formed during subsequent UV light exposure and to assure a short and reproducible test for accessing light-induced yellowing.
The paint film thus produced was exposed to 340 nm UV radiation for four hours and the yellowing was measured by Microflash 200D or Byk Handy Color measurement device. The difference in yellowing between a blank (the white test paint without fungicide) and the candidate paint sample, Δb, was recorded and used as the response for each test.

Row | SMILES | effectiveness of the UV absorber in inhibiting degradation/yellowing of the IPBC | Δb value (difference in yellowing between blank paint and candidate paint sample)
1 | Cc1ccccc1C=C1C(=O)C2(C)CCC1C2(C)C (stereo not drawn) [3-(2-methylbenzylidene)camphor] | reasonably effective | 3.4
2 | CC12CCC(C(=Cc3ccc4c(c3)OCCO4)C1=O)C2(C)C (stereo not drawn) [3-(3,4-dioxoethylenebenzylidene)camphor] | effective in inhibiting degradation of the IPBC | 2.4
3 | CC12CCC(C(=Cc3cccc(Cl)c3)C1=O)C2(C)C (stereo not drawn) [3-(3-chlorobenzylidene)camphor] | reasonably effective | 3.3
4 | Cc1cccc(C=C2C(=O)C3(C)CCC2C3(C)C)c1 (stereo not drawn) [3-(3-methylbenzylidene)camphor] | effective in inhibiting degradation of the IPBC | 2.7
5 | CC12CCC(C(=Cc3ccc(Br)cc3)C1=O)C2(C)C (stereo not drawn) [3-(4-bromobenzylidene)camphor] | reasonably effective | 3.6
6 | CCCCOc1ccc(C=C2C(=O)C3(C)CCC2C3(C)C)cc1 (stereo not drawn) [3-(4-butoxybenzylidene)camphor] | very effective | 1.8
7 | CCOc1ccc(C=C2C(=O)C3(C)CCC2C3(C)C)cc1 (stereo not drawn) [3-(4-ethoxybenzylidene)camphor] | very effective | 1.3
8 | CC(C)c1ccc(C=C2C(=O)C3(C)CCC2C3(C)C)cc1 (stereo not drawn) [3-(4-isopropylbenzylidene)camphor] | reasonably effective | 3.5
9 | COc1ccc(C=C2C(=O)C3(C)CCC2C3(C)C)cc1 (stereo not drawn) [3-(4-methoxybenzylidene)camphor] | very effective | 1.3
10 | Cc1ccc(C=C2C(=O)C3(C)CCC2C3(C)C)cc1 (stereo not drawn) [3-(4-methylbenzylidene)camphor] | effective in inhibiting degradation of the IPBC | 2.5
11 | CCCCNC(=O)OCC#CI [IPBC, 3-iodo-2-propynyl butyl carbamate, reference compound] | a significant yellow color develops | 7.1
12 | CC12CCC(C(=Cc3ccccc3)C1=O)C2(C)C (stereo not drawn) [benzylidenecamphor] | effective in inhibiting degradation of the IPBC | 2.8
